This note sets out measurements from the NIST ThermoML archive (doi:10.1021/je060305e).

SMILES strings stand for the structures. Numbers after ± are expanded uncertainties.

The nature of the data set: activity coefficient (dimensionless); of the first substance listed, at infinite dilution; xn = mol fraction of the nth substance listed. The following applies: Liquid, Chromatography, x1 = 0.

As for `C1COCCO1` [1,4-dioxane] + CCCCn1cc[n+](C)c1.F[B-](F)(F)F, the activity coefficient was found to be 1.53 ± 0.13 (303.15 K); 1.54 ± 0.13 (313.15 K); 1.55 ± 0.13 (323.15 K); 1.56 ± 0.13 (333.15 K); 1.57 ± 0.13 (343.15 K).
Taken in the same sequence, the figures for `CC(C)CO` [2-methyl-1-propanol] + CCCCn1cc[n+](C)c1.F[B-](F)(F)F were 2.63 ± 0.23, 2.22 ± 0.19, 1.86 ± 0.16, 1.66 ± 0.14 and 1.53 ± 0.13.
Taken in the same sequence, the figures for `CC(C)CCO` [3-methylbutan-1-ol] + CCCCn1cc[n+](C)c1.F[B-](F)(F)F were 6.63 ± 0.57, 5.74 ± 0.49, 5.08 ± 0.44, 4.53 ± 0.39 and 4.08 ± 0.35.
Taken in the same sequence, the figures for `CC(C)=O` [acetone] + CCCCn1cc[n+](C)c1.F[B-](F)(F)F were 1.16 ± 0.096, 1.19 ± 0.098, 1.21 ± 0.1, 1.23 ± 0.1 and 1.25 ± 0.1.
For `CC#N` [acetonitrile] + CCCCn1cc[n+](C)c1.F[B-](F)(F)F, the activity coefficient by setting is: (303.15 K) 0.734 ± 0.062; (313.15 K) 0.742 ± 0.063; (323.15 K) 0.752 ± 0.063; (333.15 K) 0.757 ± 0.064; (343.15 K) 0.768 ± 0.065.
Taken in the same sequence, the figures for `CCCCO` [butan-1-ol] + CCCCn1cc[n+](C)c1.F[B-](F)(F)F were 4.14 ± 0.36, 3.67 ± 0.32, 3.3 ± 0.28, 2.98 ± 0.26 and 2.72 ± 0.23.
With `CCC(C)O` (stereo not given) [butan-2-ol] + CCCCn1cc[n+](C)c1.F[B-](F)(F)F, the activity coefficient runs as follows: (303.15 K) 3.85 ± 0.33; (313.15 K) 3.44 ± 0.3; (323.15 K) 3.12 ± 0.27; (333.15 K) 2.79 ± 0.24; (343.15 K) 2.56 ± 0.22.
Turning to `O=C1CCCCC1` [cyclohexanone] + CCCCn1cc[n+](C)c1.F[B-](F)(F)F, the activity coefficient runs as follows: (323.15 K) 2.64 ± 0.23; (333.15 K) 2.62 ± 0.23; (343.15 K) 2.61 ± 0.23; (353.15 K) 2.58 ± 0.22; (363.15 K) 2.57 ± 0.22.
Consider `ClCCl` [dichloromethane] + CCCCn1cc[n+](C)c1.F[B-](F)(F)F, for which the activity coefficient runs as follows: (303.15 K) 1.1 ± 0.091; (313.15 K) 1.15 ± 0.095; (323.15 K) 1.2 ± 0.099; (333.15 K) 1.24 ± 0.1; (343.15 K) 1.28 ± 0.11.
Taken in the same sequence, the figures for `CCO` [ethanol] + CCCCn1cc[n+](C)c1.F[B-](F)(F)F were 1.59 ± 0.14, 1.39 ± 0.12, 1.27 ± 0.11, 1.17 ± 0.097 and 1.07 ± 0.088.
For `CCOC(C)=O` [ethyl acetate] + CCCCn1cc[n+](C)c1.F[B-](F)(F)F, the activity coefficient (303.15 K) turned out to be 3.3 ± 0.28; the activity coefficient (313.15 K) was found to be 3.34 ± 0.29; the activity coefficient (323.15 K) is 3.36 ± 0.29; the activity coefficient (333.15 K) was determined as 3.39 ± 0.29; the activity coefficient (343.15 K) amounted to 3.41 ± 0.29.
Regarding `CO` [methanol] + CCCCn1cc[n+](C)c1.F[B-](F)(F)F, the activity coefficient by setting is: (303.15 K) 0.813 ± 0.068; (313.15 K) 0.716 ± 0.061; (323.15 K) 0.646 ± 0.056; (333.15 K) 0.596 ± 0.053; (343.15 K) 0.529 ± 0.048.
Taken in the same sequence, the figures for `CCCCCO` [pentan-1-ol] + CCCCn1cc[n+](C)c1.F[B-](F)(F)F were 6.96 ± 0.6, 5.91 ± 0.51, 5.15 ± 0.45, 4.56 ± 0.39 and 4 ± 0.34.
As for `CCCO` [propan-1-ol] + CCCCn1cc[n+](C)c1.F[B-](F)(F)F, the activity coefficient is 2.8 ± 0.24 (303.15 K); 2.48 ± 0.21 (313.15 K); 2.23 ± 0.19 (323.15 K); 1.96 ± 0.17 (333.15 K); 1.64 ± 0.14 (343.15 K).
`CC(C)O` [propan-2-ol] + CCCCn1cc[n+](C)c1.F[B-](F)(F)F: the activity coefficient (303.15 K) was 2.63 ± 0.23; the activity coefficient (313.15 K) is 2.22 ± 0.19; the activity coefficient (323.15 K) turned out to be 1.86 ± 0.16; the activity coefficient (333.15 K) came to 1.66 ± 0.14; the activity coefficient (343.15 K) was determined as 1.53 ± 0.13.
Taken in the same sequence, the figures for `ClC(Cl)(Cl)Cl` [tetrachloromethane] + CCCCn1cc[n+](C)c1.F[B-](F)(F)F were 5.73 ± 0.49, 6.09 ± 0.53, 6.27 ± 0.54, 6.42 ± 0.55 and 6.52 ± 0.56.
As for `ClC(Cl)Cl` [trichloromethane] + CCCCn1cc[n+](C)c1.F[B-](F)(F)F, the activity coefficient was 1.11 ± 0.092 (303.15 K); 1.21 ± 0.1 (313.15 K); 1.28 ± 0.11 (323.15 K); 1.36 ± 0.11 (333.15 K); 1.43 ± 0.12 (343.15 K).
